Like-named read-outs stand apart in the source and are kept apart here.
Key:
[1] = Apparent pH change with temperature of buffering systems as indicated by phenol red; assay type: physicochemical; settings: phenol red pH indicator, 50 mM total buffer
TF-1 cells [2] = test: Effect of cell-affecting agents on activation of TF-1 cells by GM-CSF, extracellular acidification rate (Example 9); assay type: cell-based; settings: for inhibition at 10 µM: Homo sapiens
Experimental: The cell effects of beta-Maleimido proprionic acid (NMPA), N-Ethyl maleimide (NEM), Ferricyanide (Fe3 CN)^-3 (i.e. FeCN) and Cupric o-phenanthroline (Cu o-Ph) on the activation of TF-1 cells by GM-CSF was measured by a procedure similar to that used in Example 5. TF-1 cells were starved overnight in media lacking GM-CSF. The cells were washed twice and re-suspended in simple indicator medium at 1×10^6 cells/ml. The simple indicator medium contained one of the following test substances: NMPA, MEM, FeCN or Cu o-Ph at the tested concentration. A control test, which had no cell-affecting agent, was run in parallel. The cells in the simple indicator medium with or without cell-affecting agents were warmed to 37° C. for 20 minutes prior to the addition of recombinant human GM-CSF (obtained from Sandoz/Schering-Plough Corp.) to a final concentration of 0.1 ng/ml, and the extracellular acidification rate was measured by monitoring OD560/OD420 at 37° C. for 45 minutes. Additionally, a set of cells were mock treated with an equal volume of simple indicator medium but without any GM-CSF as a control for GM-CSF activation. The acidification rates were calculated from the slope of log(OD560/OD420) from 20 to 40 minutes after addition of the GM-CSF.
Generally, 0.1 ng/ml of GM-CSF caused a 100-150% increase in extracellular acidification rate. The cell-affecting agents inhibited the response of extracellular acidification to GM-CSF. Thus, these cell-affecting agents are inhibitory cell-affecting agents, while GM-CSF is a stimulatory cell-affecting agent. The measurements were made in duplicate and results are shown below as % inhibition of the response to GM-CSF, relative to control cells which received GM-CSF only.

mammalian cells = settings: cited from earlier work
TF-1 cells [3] = settings: TF-1 cells in culture; earlier work; cited from earlier work
TF-1 cells [4] = test: Extracellular acidification by TF-1 cells in response to GM-CSF (Example 5); assay type: cell-based
Experimental: The results from using a preferred simple media (shown in Table 2) to monitor extracellular acidification by TF-I cells is shown in FIG. 13. The TF-1 cells and are grown in complete RPMI 1640 medium with 2.0 mM L-glutamine (Catalogue No. 430-1800, GIBCO-BRL, Grand Island, N.Y.) with added […], 50 μM β-mercaptoethanol, 1000 units/liter penicillin and 1.0 mg/liter streptomycin, 10% fetal bovine serum and Ing/ml GM-CSF (human Granulocyte/Macrophage--Colony Stimulating Factor) under 5% CO2 at 37° C.
The cells are maintained at between 5×10^5 cells per ml and 5×10^6 cells per ml. […]
The extracellular acidification measurements were done in a flat-bottom, 96-well polystyrene microplate placed in a THERMOmax™ microplate reader, set to 37° C. […] Extracellular acidification was measured with Automix™ on, and with SOFTMAX® software (Molecular Devices Corporation, Menlo Park, Calif.) and an Apple® Macintosh™ computer were used to kinetically monitor the optical density changes. The ratio of optical density at 560 nanometers/optical density at 420 nanometers, as a function of time, was measured by using the ODλ1 -ODλ2 feature of a THERMOmax™ microplate reader modified to measure ODλ1 /ODλ2 instead of ODλ1 -ODλ2 (as described previously). The log10 of the ratio of optical densities at 560 nanometers/optical density at 420 nanometers was calculated and plotted as a function of time. […]

O=C(O)CN(CCN(CC(=O)O)CC(=O)O)CC(=O)O [EDTA, Ethylenedinitrilo-Tetraacetic Acid]
apparent change in pH with change in temperature ([1]; equilibrium with CO2 in air): less than 1 millipH/°C.

O=S(=O)(O)CCN1CCN(CCO)CC1 [HEPES, N-[2-Hydroxyethyl]piperazine-N'-[2-ethanesulfonic acid]]
apparent change in pH with change in temperature ([1]; equilibrium with CO2 in air): -3.92 millipH/°C.

O=S(=O)(O)CCN1CCOCC1 [MES, 2-[N-Morpholino]ethanesulfonic acid]
apparent change in pH with change in temperature ([1]; equilibrium with CO2 in air): -4.74 millipH/°C.

O=S(=O)(O)CCCN1CCOCC1 [MOPS, 3-[N-Morpholino]propanesulfonic acid]
apparent change in pH with change in temperature ([1]; equilibrium with CO2 in air): less than 1 millipH/°C.

CCN1C(=O)C=CC1=O [NEM, N-Ethyl maleimide]
inhibition at 10 µM (TF-1 cells [2]; TF-1, read-out: % Inhibition GM-CSF Response): 98%

O=C(O)CCN1C(=O)C=CC1=O [NMPA, beta-Maleimido proprionic acid]
inhibitory effects on GM-CSF activation (in words) (TF-1 cells [2]; 0.1 ng/ml GM-CSF, extracellular acidification): weak in comparison to NEM and Cu o-Ph | inhibition at 10 µM (TF-1 cells [2]; TF-1, 10 μM, 0.1 ng/ml GM-CSF, duplicate, read-out: % Inhibition GM-CSF Response): 3%

O=S1(=O)OC(c2ccc(O)cc2)(c2ccc(O)cc2)c2ccccc21 [Phenol Red, phenolsulfonephthalein]
toxicity toward most mammalian cells (mammalian cells): minimal toxicity

O=S(=O)(O)CCCNC(CO)(CO)CO [TAPS, 3-{[tris-(hydroxymethyl)-methyl]-amino}-propanesulfonicacid]
apparent change in pH with change in temperature ([1]; equilibrium with CO2 in air): -12.07 millipH/°C.

NC(CO)(CO)CO [TRIS, tris[Hydroxymethyl]aminomethane]
apparent change in pH with change in temperature ([1]; equilibrium with CO2 in air): -14.93 millipH/°C. | apparent change in pH with change in temperature ([1]; with 1.0M NaCl added): -13.36 millipH/°C.

Cupric o-phenanthroline [Cu o-Ph]
% Inhibition GM-CSF Response (TF-1 cells [2]; 25 μM, 0.1 ng/ml GM-CSF, duplicate): 43%

GM-CSF: human Granulocyte/Macrophage--Colony Stimulating Factor
concentration giving the optimum proliferation rate (TF-1 cells [3]): approximately 1 ng/ml | increase in extracellular acidification rate (TF-1 cells [2]; 0.1 ng/ml GM-CSF, 37° C.): 100-150% | saturating levels (no observance of a dose response) (TF-1 cells [4]): greater than 0.05 ng/ml

From US5766875A, “Metabolic monitoring of cells in a microplate reader” (priority 1995, dated 1998)
